Measured values reported in US20070059778A1, “Modified colony assay” (priority 2005, published 2007).

Tested on: erythroid colonies (hematopoietic progenitors)
Experiment: Hematopoietic CFC assay with anti-GpA-FITC staining, erythroid colony formation in cultures containing 5-FU
Format: cell-based, Human
Conditions: erythroid colonies stained with anti-GPA-FITC, day 14, densitometry
Experimental: Human BM, CB or MPB mononuclear cells were suspended in a methylcellulose-based culture medium containing cytokines (MethoCult™ H4434, StemCell Technologies) (StemCell Technologies Methocult™ Flyer; StemCell Technologies 2003 Catalogue pp. 86-125) at a concentration of between 1×10^4 and 1×10^5 cells per 1.1 mL of medium. The culture medium was then dispensed into 35 mm culture dishes using 3 mL syringes with blunt end needles, with 1.1 mL of medium per dish. All cultures were incubated for a total of 14 days at 37° C., 5% CO2, 100% humidity. Colonies were enumerated and classified by bright-field microscopy into the following categories based on size and morphology: CFU-E, BFU-E, CFU-GM, CFU-GEMM (StemCell Technologies Colony Atlas).
Standard CFC assays were prepared as described in example 1. […] After 14 days of culture at 37° C. the dishes were inspected using an inverted fluorescence microscope. […] The erythroid colonies were counted using bright field and fluorescence. Both methods gave very similar results: 27 colonies per dish by bright field illumination; 26 colonies by fluorescence.
A CFC-assay was set up as described in Example 2. […] Colonies were examined and photographed on day 14 and colony size and fluorescence intensity were analysed by densitometry.

## O=c1[nH]cc(F)c(=O)[nH]1 [5-FU, 5-Fluoro-Uracil]
Versus cultures without 5-FU (FIG. 4A)
  size of fluorescent colonies, as measured by surface area and perimeter length: decreased
Versus cultures without 5-FU (FIG. 4B)
  fluorescence intensity of colonies: decreased
